Experimental data taken from article PMC9997069 (Molecular Pharmaceutics, 2023).
“And” between values parts separate entries of the source, which are not always exact repeats. Identical values can stand only once. “Also recorded” adds a separate entry of the source. Like-named read-outs stand apart in the source and are kept apart here. Values belong to the molecule of their own block, whether it stands above or below them.

Experiments:
[1] = cited from earlier work
[2] = target: T1, HSA (Homo sapiens, UniProt P02768); settings: cited from earlier work
T1 construct: purchased Sigma-Aldrich
T1 sequence (P02768 25-609): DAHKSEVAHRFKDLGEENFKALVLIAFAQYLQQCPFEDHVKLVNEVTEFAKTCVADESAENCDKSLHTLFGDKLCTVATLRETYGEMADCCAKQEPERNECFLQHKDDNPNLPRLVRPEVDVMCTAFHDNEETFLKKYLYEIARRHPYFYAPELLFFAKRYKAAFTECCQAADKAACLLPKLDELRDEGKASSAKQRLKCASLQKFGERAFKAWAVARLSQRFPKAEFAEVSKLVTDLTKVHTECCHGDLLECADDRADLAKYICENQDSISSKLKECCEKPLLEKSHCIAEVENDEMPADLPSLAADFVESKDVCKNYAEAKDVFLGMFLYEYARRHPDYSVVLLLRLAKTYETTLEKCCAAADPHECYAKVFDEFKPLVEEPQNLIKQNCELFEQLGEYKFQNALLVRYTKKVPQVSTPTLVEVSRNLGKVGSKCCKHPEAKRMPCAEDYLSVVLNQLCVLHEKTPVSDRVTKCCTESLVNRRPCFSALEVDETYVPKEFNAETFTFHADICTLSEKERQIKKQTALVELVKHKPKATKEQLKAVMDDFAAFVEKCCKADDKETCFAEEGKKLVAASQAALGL

[3] = tested on: BSA; settings: cited from earlier work
[4] = target: T2, human serum albumin (HSA) (Homo sapiens, UniProt P02768); experiment: Binding to HSA by Trp214 fluorescence quenching titration; settings: for n^c ± 2σ number of binding sites / Kd / n^u ± 2σ: HSA; for n^c ± 2σ number of binding sites: inner filter corrected
T2 construct: purchased Sigma-Aldrich
T2 sequence (P02768 25-609): as above
Protocol: The emission fluorescence intensity was collected at 320 nm to avoid the fluorescence emission of the drugs. […] The excitation and emission slits were fixed at 1 and 5 nm, respectively. The step and dwell times were 1 nm and 0.1 s, respectively.
Enthalpy (ΔH) and entropy (ΔS) changes were obtained from the van′t Hoff equation [drawing 6] 6 and free energy (ΔG) changes were calculated from [drawing 7] 7 The van’t Hoff plots are shown in Figure 9, and the corresponding thermodynamic parameters are collected in Table 2. […] Proton-releasing processes in protein–ligand interactions generally result in a positive enthalpy.[64]

[5] = target: T1, HSA; experiment: Competitive binding experiments with warfarin (site 1) and ibuprofen (site 2)
Protocol: The HSA binding experiments were performed at 310 K using [HSA]:[warfarin] and [HSA]:[ibuprofen] ratios of 1. […] Synchronous fluorescence spectroscopy experiments were performed to analyze the changes in the microenvironment polarity around fluorescent residues of HSA. When the value of the intervals (Δλ) between the excitation and emission wavelengths is set at 15 nm, synchronous fluorescence spectra offer characteristic information on tyrosine residues.[61]−[63]

[6] = Protonation equilibria by UV-vis pH titration with DFT assignment; format: physicochemical; settings: for pKa: aqueous solution
[7] = tested on: PLK2 and PLK3; design: method as in PMID 21459796, PMID 21809214, PMID 19690138; settings: cited from earlier work
[8] = tested on: panel of 48 other kinases; design: method as in PMID 21459796, PMID 21809214, PMID 19690138; settings: cited from earlier work
[9] = tested on: cancer cell lines; design: method as in PMID 19690138; settings: tested cancer cell lines; cited from earlier work
[10] = tested on: multiple leukemia cell lines; design: method as in PMID 26478211; settings: cited from earlier work
[11] = tested on: xenograft mouse models; design: method as in PMID 26478211; settings: cited from earlier work
[12] = noncompartmental analysis, 1 hour infusion, 25 to 200 mg on day 1 and day 8 of a 21 day course
[13] = HSA/drug complex, van't Hoff plot 298-310 K
[14] = equilibrium between spectroscopic species 1 (charge 0/+1) and 2 (charge +2)

SMILES: CC[C@@H]1C(=O)N(C)c2cnc(Nc3ccc(C(=O)NC4CCN(C)CC4)cc3OC)nc2N1C1CCCC1 [BI-2536]
terminal half-life (up to) ([1]; 1 hour intravenous infusion, 50, 60 and 70 mg on days 1 and 3 of a 21 day course): 20 to 30 h
volume of distribution [1]: 751 to 2200 L
half-life [1, 12]: around 25 hours
half-life, max [1, 12]: 55.1 h
half-life, min [1, 12]: 18.6 h
terminal half-life ([1]; single intravenous infusion, 200 mg over 1 h): 15.4 h
ΔG^0 ([2]; HSA/drug complex, 298 K): –33.6 kJ mol^–1
ΔG^0 ([2]; HSA/drug complex, 303 K): –36.0 kJ mol^–1
ΔG^0 ([2]; HSA/drug complex, 310 K): –39.2 kJ mol^–1
ΔH^0 ([2]; HSA/drug complex): 103.8 kJ mol^–1
ΔS^0 ([2]; HSA/drug complex): 461.3 J K^–1 mol^–1
Ka^c binding constant to HSA [2]: 3.78 × 10^6 M^–1
Ka^u binding constant to HSA [2]: 11.4 × 10^7 M^–1
n^c ± 2σ number of binding sites [2]: 1.30 ± 0.09 and 1.22 ± 0.16 and 1.35 ± 0.16

SMILES: C[C@@H](Oc1cc(-c2cnn(C3CCNCC3)c2)cnc1N)c1c(Cl)ccc(F)c1Cl [Crizotinib]
Ka^c binding constant ([3]; 309 K, listed as crizotinib): 3.4 × 10^4 M^–1
Ka^c binding constant ([3]; 309 K): 3.43 × 10^4 M^–1

SMILES: C#Cc1cccc(Nc2ncnc3cc(OCCOC)c(OCCOC)cc23)c1 [Erlotinib]
Ka^c binding constant ([3]; 307 K): 3.44 × 10^2 M^–1

binding constant to HSA, times lower than for RO3280 ([4]; 310 K): 25 times
n^c ± 2σ number of binding sites ([4]; 298 K): 1.19 ± 0.06
Kd ([4]; 298 K, pH 7.4, inner filter corrected, read-out: Ka^c binding constant (converted)): 4.81 µM
n^u ± 2σ ([4]; 298 K, without inner filter corrections): 1.29 ± 0.10
Kd ([4]; 298 K, without inner filter corrections, read-out: log Ka^u ± 2σ (converted)): 0.871 µM
n^c ± 2σ number of binding sites ([4]; 303 K): 1.15 ± 0.03
Kd ([4]; 303 K, pH 7.4, inner filter corrected, read-out: Ka^c binding constant (converted)): 8.26 µM
n^u ± 2σ ([4]; 303 K, without inner filter corrections): 1.28 ± 0.05
Kd ([4]; 303 K, without inner filter corrections, read-out: log Ka^u ± 2σ (converted)): 1.07 µM
n^c ± 2σ number of binding sites ([4]; 310 K): 1.11 ± 0.05
Kd ([4]; 310 K, pH 7.4, inner filter corrected, read-out: Ka^c binding constant (converted)): 11.4 µM
n^u ± 2σ ([4]; 310 K, without inner filter corrections): 1.23 ± 0.06
Kd ([4]; 310 K, without inner filter corrections, read-out: Ka^u binding constant to HSA (converted)): 1.79 µM
ΔG^0 ([4]; HSA/drug complex, 298 K): –30.22 kJ mol^–1
ΔG^0 ([4]; HSA/drug complex, 303 K): –29.80 kJ mol^–1
ΔG^0 ([4]; HSA/drug complex, 310 K): –29.20 kJ mol^–1
ΔH^0 [4, 13]: –55.61 kJ mol^–1
ΔS^0 [4, 13]: –85.20 J K^–1 mol^–1
Kd ([5]; 310 K, [HSA]:[warfarin] ratio of 1, 5 μM, read-out: binding constant to HSA in the presence of warfarin (converted)): 1040 µM
preferential binding site into HSA ([5]; competitive experiments with warfarin and ibuprofen): site 1; also recorded: site I
pKa [6, 14]: 1.4
SMILES: C[C@@H](Oc1cc(-n2cnc3ccc(CN4CCN(C)CC4)cc32)sc1C(N)=O)c1ccccc1C(F)(F)F [GSK461364]
selectivity for PLK1 than for PLK2 and PLK3 [7]: at least 390 fold
selectivity for PLK1 than for a panel of 48 other kinases [8]: 1000 fold
cell growth inhibition [9]: causes cell growth inhibition in a high percentage of tested cancer cell lines

SMILES: C=CC(=O)N1CCC[C@@H](n2nc(-c3ccc(Oc4ccccc4)cc3)c3c(N)ncnc32)C1 [Ibrutinib]
Ka^c binding constant ([2]; HSA, 310 K): 7.2 × 10^3 M^–1
ΔG^0 ([2]; HSA, 310 K): –25.09 kJ mol^–1
ΔH^0 ([2]; HSA): –16.91 kJ mol^–1
ΔS^0 ([2]; HSA): 26.44 J K^–1 mol^–1

SMILES: Cc1ccc(F)c(NC(=O)Nc2ccc(-c3cccc4[nH]nc(N)c34)cc2)c1 [Linifanib]
Ka^c binding constant ([3]; 308 K): 4.3 × 10^3 M^–1

SMILES: Cc1cc(Nc2cc(N3CCN(C)CC3)nc(Sc3ccc(NC(=O)C4CC4)cc3)n2)[nH]n1 [MK-0457]
Ka^c binding constant ([2]; HSA, 310 K): 1.05 × 10^4 M^–1
ΔG^0 ([2]; HSA, 310 K): –23.02 kJ mol^–1
ΔH^0 ([2]; HSA): –130.63 kJ mol^–1
ΔS^0 ([2]; HSA): –343.89 J K^–1 mol^–1

SMILES: Cc1cc(C(=O)Nc2nc3cccc(Cl)c3n2[C@@H]2CCCCN(C(=O)/C=C/CN(C)C)C2)ccn1 [Nazartinib (EGF816), Nazartinib]
Ka^c binding constant ([2]; HSA, 310 K): 2.67 × 10^4 M^–1
ΔG^0 ([2]; HSA, 310 K): –26.27 kJ mol^–1
ΔH^0 ([2]; HSA): –3.22 kJ mol^–1
ΔS^0 ([2]; HSA): 74.36 J K^–1 mol^–1

SMILES: CCOc1cc2ncc(C#N)c(Nc3ccc(OCc4ccccn4)c(Cl)c3)c2cc1NC(=O)/C=C/CN(C)C [Neratinib]
Ka^c binding constant ([2]; HSA, 310 K): 2.25 × 10^5 M^–1

SMILES: COc1cc(C(=O)NC2CCN(C)CC2)ccc1Nc1ncc2c(n1)N(C1CCCC1)CC(F)(F)C(=O)N2C [RO3280]
pKa [6, 14]: 12.6
pKa ([6]; equilibrium to species with charge +3, acidic pH): 3.8
charge state at the physiological pH ([6]; pH 7.4, aqueous solution): +2
in vitro cellular potency [10]: high in vitro cellular potency
antitumor activity [11]: significant level of antitumor activity

SMILES: CNC(=O)c1cc(Oc2ccc(NC(=O)Nc3ccc(Cl)c(C(F)(F)F)c3)cc2)ccn1 [Sorafenib]
Ka^c binding constant ([2]; HSA, 305 K): 2.64 × 10^4 M^–1
ΔG^0 ([2]; HSA, 305 K): –25.8 kJ mol^–1
ΔH^0 ([2]; HSA): –28.2 kJ mol^–1
ΔS^0 ([2]; HSA): –7.87 J K^–1 mol^–1

SMILES: COc1cc2c(Nc3ccc(Br)cc3F)ncnc2cc1OCC1CCN(C)CC1 [Vandetanib]
Ka^c binding constant ([2]; HSA, 303 K): 7.63 × 10^3 M^–1
ΔG^0 ([2]; HSA, 303 K): –22.56 kJ mol^–1
ΔH^0 ([2]; HSA): –6.57 kJ mol^–1
ΔS^0 ([2]; HSA): 52.76 J K^–1 mol^–1

SMILES: C[C@H](Cn1cnc2c(N)ncnc21)OCP(=O)(O)O [tenofovir]
binding constant to HSA ([2]; 310 K): 5.7 × 10^4 M^–1
